Assays:
influenza virus antigens = test: Antigen-specific T cell response after immunization with inactivated influenza virus vaccine; format: cell-based; settings: ABA-fed mice (controls 5)
[1] = system: mesenteric lymph node-derived lymphocytes; test: Proliferation and PGE2 production, mesenteric lymph node-derived lymphocytes; format: cell-based, mice
[2] = system: colon inflammatory gene expression; test: Colon gene expression by real-time quantitative PCR, DSS colitis; format: in vivo, mice
Source text: Complementary DNA (cDNA) concentrations for genes of interest were examined by real-time quantitative PCR using an iCycler IQ System and the iQ SYBR green supermix (Bio-Rad). A standard curve was generated for each gene using 10-fold dilutions of purified amplicons starting at 5 pg of cDNA and used later to calculate the starting amount of target cDNA in the unknown samples. SYBR green I is a general double-stranded DNA intercalating dye and may therefore detect nonspecific products and primer/dimers in addition to the amplicon of interest. In order to determine the number of products synthesized during the real-time PCR, a melting curve analysis was performed on each product. Real-time PCR was used to measure the starting amount of nucleic acid of each unknown sample of cDNA on the same 96-well plate. Results are presented as starting quantity of target cDNA (picograms) per microgram of total RNA.

[3] = all studies conducted with ABA; cited from earlier work
CTLA-4 on CD4+ T cells = test: CTLA-4 assessment in cultured CD3/CD28-stimulated splenocytes; format: cell-based, mice; settings: ABA 10 μM, 20 hr
Protocol: Splenocytes from wild-type mice (n=2) were isolated under sterile conditions and seeded into 96-well plates as described above. Cells were stimulated with anti-CD3 (5 μg/mL; BD Pharmingen) and anti-CD28 (1 μg/mL; BD Pharmingen) to induce proliferation and then treated with DMSO or ABA (10 μM, Sigma). Cells were then placed in a 37° C. incubator with 5% CO2 for 20 hours and immunophenotyped with anti-CD4 Alexa Fluor 700 (BD Pharmingen), anti-CD3-PE-Cy5 (BD Pharmingen), anti-CD8-PerCp-Cy5.5 (eBioscience), and'anti-CD152 (CTLA-4)-biotin (BD). Streptavidin PE-Texas Red (1 μg/mL; BD Pharmingen) was used as a secondary antibody. Flow results were computed with a BD LSR II flow cytometer and data analyses was performed with FACS Diva software (BD).

db/db mice = test: Liver histology, hepatic steatosis by NASH scoring method; format: in vivo; settings: day 36, P<0.02
Source text: Hepatic and adipose sections were fixed in 10% buffered neutral formalin, embedded in paraffin, cut at thicknesses of 7 microns and later stained with hematoxylin and eosin (H&E) for histological examination of adipocyte hypertrophy and inflammatory lesions. Hepatic sections were scored based on the amount of lipodystrophy observed according to the Nonalcoholic steatohepatitis (NASH) scoring method, with a score of 0 signifying <5% of the cells contain lipid droplets and a score of 4 signifying that >75% of the cells contained lipids and a magnification of 400× (23). The final score was the average of five randomly chosen fields. The area of adipocytes from WAT was analyzed using Sigma Pro® 5.0 software at a magnification of 100×, and macrophage infiltration was determined by averaging the number of macrophages observed in five different fields at 400×.

CD4+ T cells = test: CFSE flow cytometry proliferation assay, Concanavalin A-stimulated splenocytes, CD4+ T cells; format: cell-based, mice; settings: 100 mg ABA/kg diet; first 2 generations
Protocol: Single cell suspensions were prepared from the spleen by gently crushing the spleens excised during the necropsy procedure between the frosted ends of microscope glass slides previously autoclaved. Tissue debris were removed by settling, erythrocytes were eliminated by hypotonic lysis and cells finally resuspended in complete RPMI (cRPMI, 10% fetal bovine serum (Hyclone, Logan, Utah), 25 mM HEPES buffer (Sigma, St. Louis, Mo.), 100 units/ml penicillin (Sigma), […] streptomycin (Sigma), 1 mM sodium pyruvate (Sigma), 1 mM nonessential aminoacids (Sigma), and 2 mM essential amino acids (Mediatech), and enumerated with a Coulter Z1 Single Particle Counter (Beckman Coulter, Miami, Fla.). […]
Splenocytes at 10^6 cells/ml were seeded in 96-well, round-bottom microtiter plates and incubated incomplete RPMI with or without Concanavalin A (Sigma) at 2.5 μg/ml. […] Following 2 washes in Fluorescence activated cell sorting (FACS) buffer, cells were incubated with streptavidin-PeCy5 (Pharmingen, San Diego, Calif.) for the biotinylated anti-mouse CD4 antibody. Cells were analyzed by 3-color flow cytometry (CFSE, phycoerythrin and PeCy5) in a FACScalibur instrument (Becton Dickinson). Ten thousand events were acquired, and data were analyzed using the Cell Quest Pro™ software (Becton Dickinson). Proliferation was assessed by the decrease in fluorescent intensity of CFSE staining. […]

[4] = system: lymphocytes derived from the spleen; test: Anti-CD3-induced proliferation of spleen-derived lymphocytes; format: cell-based; settings: ABA-fed mice (controls 30.12)

**Q.** With CC1=CC(=O)CC(C)(C)C1(O)/C=C/C(C)=C\C(=O)O (racemic) [ABA, abscisic acid] as the molecule, how does the “production of interleukin-2 (IL-2)” value (influenza virus antigens) read?
**A.** 31.67 picograms IL-2/ml of cell supernatant

**Q.** And the “prostaglandin E2 (PGE2) production” value ([1]; ABA feeding)?
**A.** decreased

**Q.** What about the “augmentation of proliferation of mesenteric lymph node-derived lymphocytes” value ([1]; following ABA feeding) of the same molecule?
**A.** 10 fold

**Q.** What about the “colonic expression of E-selectin” value ([2]; ABA-supplementation, DSS) of the same molecule?
**A.** significantly lowered

**Q.** What about the “colonic expression of ICAM-1” value ([2]; ABA-supplementation, DSS) of the same molecule?
**A.** no affect

**Q.** And the “colonic expression of MAdCAM-1” value ([2]; ABA-supplementation, DSS)?
**A.** significantly lowered

**Q.** What about the “colonic expression of PECAM-1” value ([2]; ABA-supplementation, DSS) of the same molecule?
**A.** no affect

**Q.** What about the “colonic expression of VCAM-1” value ([2]; ABA-supplementation, DSS) of the same molecule?
**A.** significantly lowered

**Q.** And the “colonic IL-6” value ([2]; ABA-treated mice)?
**A.** significantly attenuated levels

**Q.** And the “colonic MMP-9” value ([2]; ABA-treated mice)?
**A.** significantly attenuated levels

**Q.** What about the “colonic iNOS” value ([2]; ABA-treated mice) of the same molecule?
**A.** significantly attenuated levels

**Q.** What about the “colonic PPAR γ, CD36 and FABP4 expression” value ([2]; colons of ABA-fed mice) of the same molecule?
**A.** Neither colonic PPAR γ nor its responsive genes CD36, or FABP4 were significantly affected

**Q.** What about the side-effects [3] of the same molecule?
**A.** no side-effects observed

**Q.** What about the “CTLA-4 median fluorescence intensity (MFI) on CD4+ cells” value (CTLA-4 on CD4+ T cells) of the same molecule?
**A.** increased CTLA-4 MFI

**Q.** What about the “percent of CD4+ T cells expressing CTLA-4” value (CTLA-4 on CD4+ T cells) of the same molecule?
**A.** significantly increased

**Q.** And the “hepatic steatosis (NASH scoring)” value (db/db mice)?
**A.** significantly mitigated

**Q.** And the “CD4+ T cells RPI1” value (CD4+ T cells)?
**A.** 17.72

**Q.** And the “stimulation index, anti-CD3-induced proliferation” value [4]?
**A.** 8.55

— patent US8367727B2, “Method of using abscisic acid to treat diseases and disorders” (priority 2006, dated 2013)
